In US20200171066A1, “EYE DROP FOR TREATING DRY EYE” (Xiamen University, priority 2017, published 2020):

What was measured:
[1] = test system: corneal epithelial barrier of mice suffering dry eye; assay: Corneal OGD fluorescent staining in dry eye mouse model; format: in vivo, C57BL/6 mice; settings: 0.1% eye drop, 4 times a day on both eyes
Protocol: (§1) 1. Establish a dry eye mouse model: Female C57BL/6 mice of 10-12 weeks old were injected subcutaneously with scopolamine 0.5 mg/0.2 mL four times a day and kept in a dry environment for 5 days (RH: 30±3; T: 23-25° C.); normal control group was maintained in normal environment (RH: 60%-80%; T: 23-25° C.).
(§2) Preparation of mizoribine eye drop: dry eye treatment group used 0.1% of mizoribine eye drop prepared by the method of Embodiment 1.
(§3) Eye drop method: Eye drop treatment was performed using the above-mentioned eye drops 4 times a day on both eyes.
1. Corneal OGD fluorescent staining: mice were sacrificed, and 0.5 μl of Oregongreen-dextran (OGD) was dropped into the conjunctival sac of mice with a pipette, manual blinking was performed, and the conjunctival sac was washed with 1 mL of normal saline 1 minute later. The corneal epithelial fluorescence staining was observed and shot under a living fluorescence microscope.

[2] = test system: conjunctival goblet cells; assay: PAS staining of conjunctival goblet cells in dry eye mouse model; format: in vivo, C57BL/6 mice; settings: 0.1% eye drop, compared with the dry eye group
Protocol: as §1, §2, §3
2. PAS staining of conjunctival goblet cells: Paraffin specimens of the whole eyeballs (conjunctival sac) of the mice were cut into 5 um sections and stained with periodic acid-Schiff (PAS) reagent to observe the morphology and number of conjunctival goblet cells.

[3] = test system: conjunctival CD4+T cell infiltration; assay: Conjunctival CD4+T cell staining in dry eye mouse model; format: in vivo, C57BL/6 mice; settings: 0.1% eye drop, compared with the dry eye group
Protocol: as §1, §2, §3
3. Conjunctival CD4+T cell staining: fixing frozen sections by acetone at −20° C. for 10 minutes, disrupting with 0.2% of Triton-X PBS for 10 minutes, and using 0.3% of H2O2 to eliminate endogenous peroxidase, blocking with 20% of normal goat serum for 45 minutes. The primary anti-CD4 was incubated for 1 hour at room temperature. After extensive washing (digestion), the biotinylated (second) antibody was incubated for 30 minutes. Finally, a Vectastain Elite ABC kit was used to develop color and stain the nucleus.

[4] = test system: IFN-γ; assay: Real-Time PCR of conjunctival RNA in dry eye mouse model; format: in vivo, C57BL/6 mice; settings: 0.1% eye drop, compared with the dry eye group
Protocol: as §1, §2, §3
(§4) Prepare the PCR reaction solution according to the following components:
(§5) Three-step PCR amplification standard procedure:
(§6) Stage 1: Pre-denaturation cycle number: 195° C., 30 sec.
(§7) Stage 2: number of PCR reaction cycles: 4095° C. for 5 sec. and 60° C. for 34 sec.
(§8) Stage 3: Dissolving curve
(§9) The relative expression level of the gene was analyzed by the relative Ct method, and the specific expression of the target gene was calculated by the following formula, that is to say, the relative expression level=2^−ΔΔCt; wherein −ΔΔCt=−(ΔCt, q−ΔCt, cb), ΔCt, q=Ct,x−Ct, r ΔCt, cb=Ct, cb−Ct, r, where r=reference gene, Cb=calibration value, X=target gene, and cycle threshold (C) is determined through primary signal (fluorescence).

[5] = test system: IL-13; assay: as above; format: in vivo, C57BL/6 mice; settings: 0.1% eye drop, compared with the dry eye group
Protocol: as §1, §2, §3, §4, §5, §6, §7, §8, §9

[6] = test system: IL-1β; assay: as above; format: in vivo, C57BL/6 mice; settings: 0.1% eye drop, compared with the dry eye group
Protocol: as §1, §2, §3, §4, §5, §6, §7, §8, §9

[7] = test system: TNF-α; assay: as above; format: in vivo, C57BL/6 mice; settings: 0.1% eye drop, compared with the dry eye group
Protocol: as §1, §2, §3, §4, §5, §6, §7, §8, §9

[8] = test system: Patients with Sjogren's syndrome; settings: 0.03%; cited from earlier work
[9] = test system: NF-κB signaling pathway; settings: 0.025% applied topically to the eye, mice; cited from earlier work
[10] = test system: dry eye dogs; settings: 0.02% drops applied topically in the eye; cited from earlier work
[11] = cited from earlier work

NC(=O)c1ncn([C@@H]2O[C@H](CO)[C@@H](O)[C@H]2O)c1O [mizoribine]
corneal flaky staining (OGD) [1]: no flaky staining was observed | number of corneal punctiform staining (OGD) ([1]; compared with the dry eye group): significantly reduced | number of conjunctival goblet cells (PAS) [2]: significant increase | proportion of brown-yellow cells (conjunctival CD4+T cells) [3]: significantly reduced | expression of conjunctival IFN-γ [4]: significantly decreased | expression of conjunctival IL-13 [5]: significantly decreased | expression of conjunctival IL-1β [6]: significantly decreased | expression of conjunctival TNF-α [7]: significantly decreased

C=CC[C@@H]1/C=C(\C)C[C@H](C)C[C@H](OC)[C@H]2O[C@@](O)(C(=O)C(=O)N3CCCC[C@H]3C(=O)O[C@H](/C(C)=C/[C@@H]3CC[C@@H](O)[C@H](OC)C3)[C@H](C)[C@@H](O)CC1=O)[C@H](C)C[C@@H]2OC [FK506, tacrolimus]
tear film stability [8]: improve tear film stability | activation of NF-κB signaling pathway [9]: inhibit the activation of NF-κB signaling pathway | ocular surface signs of dry eye [9]: reduce the ocular surface signs of dry eye | amount of tear secretion [10]: significantly increase | solubility in water [11]: hardly soluble in water
